# Experimental data published in patent US9051310B2, “Nicotinamide derivative or salt thereof” (FUJIFILM Corporation, priority 2011, dated 2015).
# Experiments:
# [1] = biological target: T1, glutathione S-transferase (GST)-linked full-length human Syk protein (Homo sapiens, UniProt P43405); assay: Syk enzyme assay; format: biochemical; conditions: 0.83 nM Syk, time-resolved fluorescence; read-out: IC50 of Syk-inhibitory activity
# T1 construct: glutathione S-transferase (GST)-linked full-length human Syk protein; purchased Carna Biosciences; host or cells: Baculovirus expression system
# How it was run: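 Phosphotyrosine on a biotin-peptide substrate (0.5 μM) was read by time-resolved fluorescence at 615 and 665 nm with Eu-anti-pTyr antibody and APC-streptavidin after 1 h EDTA stop.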
# [2] = system: THP-1 cells (phagocytosis of opsonized Escherichia coli); assay: Antibody-dependent phagocytosis assay; format: cell-based; conditions: Homo sapiens; IFNγ differentiated THP-1 cells, opsonized pHrodo Escherichia coli, 3 hours; read-out: IC50 upon phagocytosis inhibition
# How it was run: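 THP-1 cells were differentiated to macrophage-like cells with 10 ng/ml IFNγ for 2 days, then treated with test compound for 30 min at room temperature. pHrodo-labeled E. coli opsonized with anti-E. coli antibody were added for 3 h at 37° C. Phagocytosis by viable (Calcein AM-positive) cells was quantified by imaging.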
# [3] = system: mouse thrombocytopenia induced by anti-mouse CD41 antibody; assay: Mouse thrombocytopenia model; format: in vivo; conditions: Platelet, female BALB/c mice, 50 mg/kg 1 hour before anti-CD41 antibody, blood sampling 4 hours after antibody, read-out: improvement of platelet count compared with the control group
# Experimental: Test compounds were tested to examine effects upon mouse thrombocytopenia. Each test compound (50 mg/kg) was administered to 5- to 7-week-old female BALB/c mice (Charles River Laboratories Japan, Inc.). One hour thereafter, an anti-mouse CD41 ([…]) antibody (SCB) (1 μg (200 μl)) was intravenously administered to each mouse so as to induce thrombocytopenia. Four hours after administration of the anti-CD41 antibody, blood sampling from the postcava was performed. The platelet count was determined using an automated hematology analyzer.
# [4] = system: THP-1 cells (TNFα secretion on human IgG-coated plate); assay: TNFα generation assay; format: cell-based; conditions: IFN-γ differentiated THP-1 cells, 7 hours, AlphaLISA, read-out: IC50 of TNFα generation inhibitory activity
# How it was run: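 THP-1 cells were differentiated with 10 ng/ml IFN-γ for 2 days, then preincubated with compound for 30 min at room temperature. They were then plated at 5×10^4 cells/well on plates coated with human IgG (10 μg/ml). TNFα secreted over 7 h of culture was quantified by AlphaLISA.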
IC50 [1] [nM],IC50 [2] [nM],IC50 [4] [nM],SMILES,change in vivo at 50 mg/kg [3] [%]
< 10,< 1000,,"C[C@H](N)[C@@H](CC1CC1)Nc1nc(Nc2ccc3c(c2)c(N(C)C)nn3C)c(C(N)=O)cc1F [Example 2-2, 6-(((2R,3S)-3-amino-1-cyclopropylbutan-2-yl)amino)-2-((3-(dimethylamino)-1-methyl-1H-indazol-5-yl)amino)-5-fluoronicotinamide]",≥ 50
< 10,< 1000,65 to 130,"Cc1cc(Nc2nc(N[C@H](CC(C)C)[C@H](C)N)c(F)cc2C(N)=O)cnc1C [Example 2-18, 6-(((2S,3R)-2-amino-5-methylhexan-3-yl)amino)-2-((5,6-dimethylpyridin-3-yl)amino)-5-fluoronicotinamide]",≥ 50
< 10,< 1000,65 to 130,COc1cc(Nc2nc(N[C@H](C3CCC3)[C@H](C)N)c(F)cc2C(N)=O)cc(OC)c1 [Example 2-28],≥ 50
< 10,1000 to 3000,,"C[C@H](N)[C@H](Nc1nc(Nc2ccc3c(c2)c(N(C)C)nn3C)c(C(N)=O)cc1F)C1CCC1 [Example 2-89, 6-(((1R,2S)-2-amino-1-cyclobutylpropyl)amino)-2-((3-(dimethylamino)-1-methyl-1H-indazol-5-yl)amino)-5-fluoronicotinamide]",≥ 50
< 10,1000 to 3000,,"C[C@H](N)[C@H](Nc1nc(Nc2cc(F)c3c(c2)c(N(C)C)nn3C)c(C(N)=O)cc1F)C1CCC1 [Example 2-192, 6-(((1R,2S)-2-amino-1-cyclobutylpropyl)amino)-2-((3-(dimethylamino)-7-fluoro-1-methyl-1H-indazol-5-yl)amino)-5-fluoronicotinamide]",≥ 50
10 to 50,,130 to 200,"CC[C@@H](Nc1nc(Nc2cnc3c(c2)c(OC)nn3C)c(C(N)=O)cc1F)[C@H](C)N [Example 2-251, 6-(((2S,3R)-2-aminopentan-3-yl)amino)-5-fluoro-2-((3-methoxy-1-methyl-1H-pyrazolo[3,4-b]pyridin-5-yl)amino)nicotinamide]",≥ 50
< 10,,< 65,"CCn1ncc2cc(Nc3nc(N[C@@H]4CCOC[C@@H]4N)c(F)cc3C(N)=O)ccc21 [Example 2-326, 6-(((3R,4R)-3-aminotetrahydro-2H-pyran-4-yl)amino)-2-((1-ethyl-1H-indazol-5-yl)amino)-5-fluoronicotinamide]",≥ 50
< 10,,< 65,"Cc1nn(CC(F)F)c2ccc(Nc3nc(N[C@@H]4CCOC[C@@H]4N)c(F)cc3C(N)=O)cc12 [Example 2-328, 6-(((3R,4R)-3-aminotetrahydro-2H-pyran-4-yl)amino)-2-((1-(2,2-difluoroethyl)-3-methyl-1H-indazol-5-yl)amino)-5-fluoronicotinamide]",≥ 50
< 10,1000 to 3000,,"COCCn1ncc2c(Nc3nc(N[C@@H]4CCOC[C@@H]4N)c(F)cc3C(N)=O)cccc21 [Example 2-331, 6-(((3R,4R)-3-aminotetrahydro-2H-pyran-4-yl)amino)-5-fluoro-2-((1-(2-methoxyethyl)-1H-indazol-4-yl)amino)nicotinamide]",≥ 50
< 10,< 1000,,"COCCn1nc(OC(F)F)c2cc(Nc3nc(N[C@@H]4CCOC[C@@H]4N)c(F)cc3C(N)=O)ccc21 [Example 2-352, 6-(((3R,4R)-3-aminotetrahydro-2H-pyran-4-yl)amino)-2-((3-(difluoromethoxy)-1-(2-methoxyethyl)-1H-indazol-5-yl)amino)-5-fluoronicotinamide]",≥ 50
10 to 50,1000 to 3000,,"CC[C@H](N)[C@H](Nc1nc(Nc2cnc(C)c(-n3nccn3)c2)c(C(N)=O)cc1F)C1CC1 [Example 2-358, 6-(((1R,2S)-2-amino-1-cyclopropylbutyl)amino)-5-fluoro-2-((6-methyl-5-(2H-1,2,3-triazol-2-yl)pyridin-3-yl)amino)nicotinamide]",≥ 50
< 10,1000 to 3000,65 to 130,"COCCn1ncc2c(Nc3nc(N[C@@H]4CCOC[C@@H]4N)c(F)cc3C(N)=O)cc(F)cc21 [Example 2-375, 6-(((3R,4R)-3-aminotetrahydro-2H-pyran-4-yl)amino)-5-fluoro-2-((6-fluoro-1-(2-methoxyethyl)-1H-indazol-4-yl)amino)nicotinamide]",
< 10,< 1000,65 to 130,"CC[C@@H](Nc1nc(Nc2cc(F)cc3c2cnn3CCOC)c(C(N)=O)cc1F)[C@H](C)N [Example 2-376, 6-(((2S,3R)-2-aminopentan-3-yl)amino)-5-fluoro-2-((6-fluoro-1-(2-methoxyethyl)-1H-indazol-4-yl)amino)nicotinamide]",
< 10,1000 to 3000,130 to 200,"CCn1ncc2c(Nc3nc(N[C@H](C4CCC4)[C@H](C)N)c(F)cc3C(N)=O)cncc21 [Example 2-406, 6-(((1R,2S)-2-amino-1-cyclobutylpropyl)amino)-2-((1-ethyl-1H-pyrazolo[3,4-c]pyridin-4-yl)amino)-5-fluoronicotinamide]",
< 10,1000 to 3000,130 to 200,"Cc1ncc(Nc2nc(N[C@H](c3ccccc3F)[C@H](C)N)c(F)cc2C(N)=O)cc1-n1nccn1 [Example 2-409, 6-(((1R,2S)-2-amino-1-(2-fluorophenyl)propyl)amino)-5-fluoro-2-((6-methyl-5-(2H-1,2,3-triazol-2-yl)pyridin-3-yl)amino)nicotinamide]",
< 10,,130 to 200,"Cc1ncc(Nc2nc(N[C@H](c3cccs3)[C@H](C)N)c(F)cc2C(N)=O)cc1-n1nccn1 [Example 2-415, 6-(((1S,2S)-2-amino-1-(thiophen-2-yl)propyl)amino)-5-fluoro-2-((6-methyl-5-(2H-1,2,3-triazol-2-yl)pyridin-3-yl)amino)nicotinamide]",≥ 50
< 10,,,"COCCN(C)c1nn(C)c2ccc(Nc3nc(N[C@@H]4CCCC[C@@H]4N)c(F)cc3C(N)=O)cc12 [Example 2-456, 6-(((1R,2S)-2-aminocyclohexyl)amino)-5-fluoro-2-((3-((2-methoxyethyl)(methyl)amino)-1-methyl-1H-indazol-5-yl)amino)nicotinamide]",≥ 50
10 to 50,,,"Cc1cc(C)n(-c2cncc(Nc3nc(N[C@@H]4CCCC[C@@H]4N)c(F)cc3C(N)=O)c2)n1 [Example 2-473, 6-(((1R,2S)-2-aminocyclohexyl)amino)-2-((5-(3,5-dimethyl-1H-pyrazol-1-yl)pyridin-3-yl)amino)-5-fluoronicotinamide]",≥ 50
< 10,,,"NC(=O)c1cc(F)c(N[C@@H]2CCCC[C@@H]2N)nc1Nc1cncc(-n2cc(Cl)cn2)c1 [Example 2-483, 6-(((1R,2S)-2-aminocyclohexyl)amino)-2-((5-(4-chloro-1H-pyrazol-1-yl)pyridin-3-yl)amino)-5-fluoronicotinamide]",≥ 50
